Source: US20140073589A1, “Amphetamine Prodrugs” (Shire AG, priority 2012, published 2014)
“Also recorded” adds a separate entry of the source.

How the values were obtained:
dog faecal homogenates = assay: In vitro conversion of amphetamine prodrugs to amphetamine in dog faecal homogenates; assay type: in vitro ADME; conditions: dog faecal homogenate, prodrug 10 μM, anaerobic, 37° C.; for Amphetamine C0: time 0; for Amphetamine C6: 6 hours; for Amphetamine C24: 24 hours
Procedure: (§1) Frozen samples were stored at −70° C. prior to analysis for the parent drug and pro-drug using a qualified LC-MS-MS assay.

human faecal homogenates = assay: In vitro conversion of amphetamine prodrugs to amphetamine in human faecal homogenates; assay type: in vitro ADME; conditions: for Amphetamine C0 / Amphetamine C6 / Amphetamine C24: human faecal homogenate, prodrug 10 μM, anaerobic, 37° C.; for Amphetamine C0: time 0; for conversion to the active, human compared to dog faecal homogenates: human vs dog faecal homogenates; for conversion to the active by the microflora: summary of Table 4 incubations (dog, monkey, human faecal homogenates, rat caecal contents); for Amphetamine C6: 6 hours; for Amphetamine C24: 24 hours
Procedure: as §1

[1] = Pharmacokinetics of prodrug and amphetamine after oral dosing to male dogs (Example 20); conditions: for AUC / Tmax: male, dog, in vivo, po, 0.5 mg; for absorption of prodrug in the upper gastrointestinal tract: male dogs, oral gavage of prodrug
[2] = Pharmacokinetics of prodrug and amphetamine after oral dosing to male cynomolgus monkeys (Example 21); conditions: cynomolgus monkey
[3] = system: monkey faecal homogenates; assay: In vitro conversion of amphetamine prodrugs to amphetamine in monkey faecal homogenates; assay type: in vitro ADME; conditions: monkey faecal homogenate, prodrug 10 μM, anaerobic, 37° C., time 0
Procedure: as §1

[4] = system: faecal homogenates prepared from three subjects; assay: Interindividual variability in amphetamine generation in human fecal homogenates (Example 25); conditions: 100 μM, anaerobic, 37° C., up to 6 hours
[5] = Pharmacokinetics of prodrug and amphetamine after intravenous dosing to male cynomolgus monkeys (Example 22)
[6] = Pharmacokinetics of amphetamine after oral dosing of d-amphetamine or Compound 1, or intranasal dosing of Compound 1, to male dogs (Example 23)

## CC(=O)N[C@H]1[C@@H]2OC[C@@H](O2)[C@@H](O)[C@@H]1O[C@H](C)C(=O)N[C@H](C)Cc1ccccc1 [Compound 17, (2R)-2-[[(2S,3R,4R)-4-acetamido-2-hydroxy-6,8-dioxabicyclo[3.2.1]octan-3-yl]oxy]-N-[(1R)-1-methyl-2-phenyl-ethyl]propanamide]
Dog faecal homogenates
  Amphetamine C0: BLQ
Human faecal homogenates
  Amphetamine C0: BLQ
  conversion to the active, human compared to dog faecal homogenates: greater activity in human in vitro studies; also recorded: higher in human compared to dog faecal homogenates
  conversion to the active by the microflora: efficient conversion
[1]
  AUC: 213 ng·h/mL
  Tmax: 0.5 h

## CC(C)C(=O)N[C@@H](C=O)[C@@H](O[C@H](C)C(=O)N[C@@H](C)Cc1ccccc1)[C@H](O)[C@H](O)CO [Compound 18, N-((2R,3R,4R,5R)-4,5,6-trihydroxy-1-oxo-3-(((R)-1-oxo-1-(((S)-1-phenylpropan-2-yl)amino)propan-2-yl)oxy)hexan-2-yl)isobutyramide]
Dog faecal homogenates
  Amphetamine C0: BLQ
Human faecal homogenates
  Amphetamine C0: BLQ

## CC(=O)N[C@@H](C=O)[C@@H](O[C@H](C)C(=O)N[C@H](C)Cc1ccccc1)[C@H](O)[C@H](O)CO [Compound 13, (2R)-2-{[(2R,3R,4R,5R)-2-Acetamido-4,5,6-trihydroxy-1-oxohexan-3-yl]oxy}-N-[(2R)-1-phenylpropan-2-yl]propanamide]
Human faecal homogenates
  Amphetamine C0: BLQ
  conversion to the active by the microflora: efficient conversion
[1]
  AUC: 564 ng·h/mL
  Tmax: 0.75 h

## CCC(=O)N[C@H]1C(O)O[C@H](CO)[C@@H](O)[C@@H]1O[C@H](C)C(=O)N[C@@H](C)Cc1ccccc1 (stereo partly drawn) [Compound 16, (2R)-2-[(3R,4R,5S)-2,5-dihydroxy-6-(hydroxymethyl)-3-(propanoylamino)tetrahydropyran-4-yl]oxy-N-[(1S)-1-methyl-2-phenyl-ethyl]propanamide]
Dog faecal homogenates
  Amphetamine C0: BLQ
Human faecal homogenates
  Amphetamine C0: BLQ
  conversion to the active by the microflora: efficient conversion
[1]
  AUC: 273 ng·h/mL
  Tmax: 0.5 h

## C[C@@H](Cc1ccccc1)NC(=O)[C@@H](C)O[C@H]1[C@H](O)[C@@H](CO)OC[C@H]1N [Compound 12, (R)-2-(((2R,3S,4R,5R)-5-Amino-3-hydroxy-2-(hydroxymethyl)tetrahydro-2H-pyran-4-yl)oxy)-N-((S)-1-phenylpropan-2-yl)propanamide]
Dog faecal homogenates
  Amphetamine C6: BLQ
  Amphetamine C24: BLQ
  Amphetamine C0: BLQ
Human faecal homogenates
  Amphetamine C6: BLQ
  Amphetamine C24: BLQ
  Amphetamine C0: BLQ

## CCO[C@H]1O[C@H](CO)[C@@H](O)[C@H](O)[C@H]1NNC(C)Cc1ccccc1 (stereo partly drawn) [Compound 9, (2R,3S,4R,5R,6S)-6-Ethoxy-2-(hydroxymethyl)-5-[2-(1-phenylpropan-2-yl)hydrazin-1-yl]oxane-3,4-diol]
[1]
  absorption of prodrug in the upper gastrointestinal tract: high absorption

## CO[C@H]1O[C@H](CO)[C@@H](O)[C@H](O)[C@H]1NNC(C)Cc1ccccc1 (stereo partly drawn) [Compound 10, (2R,3S,4R,5R,6S)-6-Methoxy-2-(hydroxymethyl)-5-[2-(1-phenylpropan-2-yl)hydrazin-1-yl]oxane-3,4-diol]
[1]
  absorption of prodrug in the upper gastrointestinal tract: high absorption

## CC(=O)N[C@H]1C(O)O[C@H](CO)[C@@H](O)[C@@H]1O[C@@H](C)C(=O)N[C@@H](C)Cc1ccccc1 (stereo partly drawn) [Compound 14, (2S)-2-(((3R,4R,5S,6R)-3-Acetamido-2,5-dihydroxy-6-(hydroxymethyl)tetrahydro-2H-pyran-4-yl)oxy)-N-((S)-1-phenylpropan-2-yl)propanamide]
Dog faecal homogenates
  Amphetamine C0: BLQ
Human faecal homogenates
  Amphetamine C6: BLQ
  Amphetamine C24: BLQ
  Amphetamine C0: BLQ

## CCCCCCCC(=O)N[C@@H](C=O)[C@@H](O[C@H](C)C(=O)N[C@@H](C)Cc1ccccc1)[C@H](O)[C@H](O)CO [Compound 19, N-((2R,3R,4R,5R)-4,5,6-trihydroxy-1-oxo-3-(((R)-1-oxo-1-(((S)-1-phenylpropan-2-yl)amino)propan-2-yl)oxy)hexan-2-yl)octanamide]
Dog faecal homogenates
  Amphetamine C0: BLQ
Human faecal homogenates
  Amphetamine C6: BLQ
  Amphetamine C0: BLQ

## C[C@@H](Cc1ccccc1)NC(=O)[C@H](O)[C@@H](O)[C@H](O)[C@H](O)CO [Compound 6, (2R,3S,4R,5R)-2,3,4,5,6-pentahydroxy-N-((S)-1-phenylpropan-2-yl)hexanamide]
Dog faecal homogenates
  Amphetamine C0: BLQ
Human faecal homogenates
  Amphetamine C0: BLQ
[1]
  absorption of prodrug in the upper gastrointestinal tract: high absorption

## C[C@@H](Cc1ccccc1)NC(=O)[C@@H](C)O[C@H]1[C@H](O)[C@@H](CO)OC(O)[C@@H]1N (mixture of isomers) [Compound 4, (2R)-2-(((3R,4R,5S,6R)-3-amino-2,5-dihydroxy-6-(hydroxymethyl)tetrahydro-2H-pyran-4-yl)oxy)-N-((S)-1-phenylpropan-2-yl)propanamide]
Dog faecal homogenates
  Amphetamine C0: BLQ
Human faecal homogenates
  Amphetamine C0: BLQ

## CC(=O)N[C@@H]1CO[C@H](CO)[C@@H](O)[C@@H]1O[C@H](C)C(=O)N[C@@H](C)Cc1ccccc1 [Compound 11, (R)-2-(((2R,3S,4R,5R)-5-Acetamido-3-hydroxy-2-(hydroxymethyl)tetrahydro-2H-pyran-4-yl)oxy)-N-((S)-1-phenylpropan-2-yl)propanamide]
Dog faecal homogenates
  Amphetamine C6: BLQ
  Amphetamine C24: BLQ
  Amphetamine C0: BLQ
Human faecal homogenates
  Amphetamine C6: BLQ
  Amphetamine C24: BLQ
  Amphetamine C0: BLQ

## CC(=O)N[C@H]1C(O)O[C@H](CO)[C@@H](O)[C@@H]1OCC(=O)N[C@@H](C)Cc1ccccc1 (stereo partly drawn) [Compound 15, 2-(((3R,4R,5S,6R)-3-acetamido-2,5-dihydroxy-6-(hydroxymethyl)tetrahydro-2H-pyran-4-yl)oxy)-N-((S)-1-phenylpropan-2-yl)acetamide]
Dog faecal homogenates
  Amphetamine C0: BLQ
Human faecal homogenates
  Amphetamine C0: BLQ

## C[C@@H](Cc1ccccc1)NC(=O)[C@@H](C)OC(=O)N[C@H]1C(O)O[C@H](CO)[C@@H](O)[C@@H]1O (stereo partly drawn) [Compound 8, (1R)-1-{[(2S)-1-Phenylpropan-2-yl]carbamoyl}ethyl N-[(3R,4R,5S,6R)-2,4,5-trihydroxy-6-(hydroxymethyl)oxan-3-yl]carbamate]
Dog faecal homogenates
  Amphetamine C6: BLQ
  Amphetamine C24: BLQ
  Amphetamine C0: BLQ
Human faecal homogenates
  Amphetamine C6: BLQ
  Amphetamine C24: BLQ
  Amphetamine C0: BLQ

## C[C@@H](Cc1ccccc1)NC(=O)[C@H](O)[C@@H](O)[C@H](O[C@@H]1O[C@H](CO)[C@H](O)[C@H](O)[C@H]1O)[C@H](O)CO [Compound 5, (2R,3R,4R,5R)-2,3,5,6-tetrahydroxy-N-((S)-1-phenylpropan-2-yl)-4-(((2S,3R,4S,5R,6R)-3,4,5-trihydroxy-6-(hydroxymethyl)tetrahydro-2H-pyran-2-yl)oxy)hexanamide]
Human faecal homogenates
  conversion to the active, human compared to dog faecal homogenates: greater activity in human in vitro studies; also recorded: higher in human compared to dog faecal homogenates
  conversion to the active by the microflora: efficient conversion

## C[C@H](N)Cc1ccccc1 [d-Amphetamine, d-amphetamine]
[2]; in vivo, 1 mg/kg
  Tmax: ≤ 1 h
[2]; plasma, 1 mg/kg
  AUC: 4440 ng·h/mL
  Tmax: 2.4 h

## CC(=O)N[C@H]1C(O)O[C@H](CO)[C@H](O)C1O[C@H](C)C(=O)N[C@@H](C)Cc1ccccc1 (stereo partly drawn) [Compound 1, (2R)-2-(((3R,4R,5R,6R)-3-acetamido-2,5-dihydroxy-6-(hydroxymethyl)tetrahydro-2H-pyran-4-yl)oxy)-N-((S)-1-phenylpropan-2-yl)propanamide]
[3]
  Amphetamine C0: BLQ
Human faecal homogenates
  conversion to the active by the microflora: efficient conversion
[1]
  AUC: 354 ng·h/mL
  Tmax: 1 h
[4]
  variability of amphetamine generation between subjects: relatively modest variability
[2]; in vivo, 0.5 mg
  AUC: 187 ng·h/mL
  Tmax: 1.1 h
[5]
  conversion to the active amphetamine following systemic exposure: no significant quantities
[5]; 0.2 mg d-amphetamine free base equivalents/kg
  amphetamine levels where detected (one time point between 4 and 8 hours): near the limit of quantification
[6]; 4 mg intranasal vs 4 mg po
  exposure to amphetamine, intranasal compared with oral administration of the prodrug: less than that observed following oral administration of the prodrug
[6]; intranasal
  onset of amphetamine appearance in the systemic circulation: did not enhance the onset
